Source: patent publication US20200277246A1, “TREATMENT METHOD, COMPOUNDS, AND METHOD OF INCREASING TRPV2 ACTIVITY” (THE FEINSTEIN INSTITUTE FOR MEDICAL RESEARCH, priority 2015, published 2020)

Columns and labels:
[1] = system: FLS actin cytoskeleton, lamellipodia and Trpv2 distribution; experiment: Immunofluorescence and confocal microscopy of FLS; assay type: cell-based
Experimental: Immunofluorescence was performed as previously reported (Laragione et al., “mTOR Regulates the Invasive Properties of Synovial Fibroblasts in Rheumatoid Arthritis,” Mol. Med. 16 (9-10):352-358 (2010); Chan et al., “The GTPase Rac Regulates the Proliferation and Invasion of Fibroblast-Like Synoviocytes from Rheumatoid Arthritis Patients,” Mol. Med. 13 (5-6):297-304 (2007), which are hereby incorporated by reference in their entirety). Briefly, FLS were cultured on coverslips to 10-20% confluence, starved overnight and then pre-treated for 30 minutes, 60 minutes or 24 h with either DMSO or O1821, in the presence or absence of IL-1β 10-25 ng/ml or PDGF 50 ng/ml in complete media or in serum-free media. Cells were then fixed with 4% formaldehyde for 15 minutes at room temperature and permeabilized with PBS/Triton X-100 0.1% for 5 minutes. Non-specific binding was blocked with 5% nonfat milk. A rabbit anti-Trpv2 (Santa Cruz Biotechnology) was used as primary antibody, and a Alexa Fluor 488 (green) donkey anti-rabbit IgG (Invitrogen) used as secondary antibody. Alexa Fluor 594 (red) Phalloidin (Invitrogen) was used to stain the actin filament. The stained cells were mounted on a glass slide. A Zeiss Axiovert 200 M fluorescent microscope was used for visualization with the appropriate filters, with Zeiss Axioversion 4.7 software. Immunofluorescence microscopy was used for cell cytoskeleton scoring as previously described (Laragione et al., “CXCL10 and its Receptor CXCR3 Regulate Synovial Fibroblast Invasion in Rheumatoid Arthritis,” Arthritis Rheum. 63 (11):3274-3283 (2011), which is hereby incorporated by reference in its entirety). An Olympus FluoView 300 was used for confocal microscopy with a 600× magnification.

phosphorylated Erk1/2 = experiment: FLS levels of phosphorylated Erk1/2; assay type: cell-based
[2] = system: C57BL/6 mice with KRN serum transfer-induced arthritis; experiment: KRN serum transfer induced arthritis (clinical scores and histology); assay type: in vivo, mouse
Experimental: Seven to eight week-old C57BL/6 male mice (Jackson Laboratories) received 200 μl of KRN arthritogenic serum (Ji et al, “Genetic Influences on the End-Stage Effector Phase of Arthritis,” J. Exp. Med. 194 (3):321-330 (2001), which is hereby incorporated by reference in its entirety) (KBN TCR transgenic mice were a kind gift from Christophe Benoist and have been intercrossed with NOD at the Feinstein Institute to generate KRN mice and the arthritogenic serum) intraperitoneal (IP) on day zero (D0) and day 2 (D2). After the onset of clear ankle arthritis (day 3; D3), mice were started on O1821 10 mg/Kg IP BID or control vehicle (DMSO in saline solution). Arthritis severity was scored according to the system reported by Jirholt et al., “Genetic Linkage Analysis of Collagen-Induced Arthritis in the Mouse,” Eur. J. Immunol. 28 (10):3321-3328 (1998), which is hereby incorporated by reference in its entirety, which includes a number of involved joints and a degree of inflammation (swelling/redness) in a scale of 0-12 per mouse per day.
[…] Histology slides were scored without knowledge of treatment and according to a comprehensive scoring system previously reported that includes parameters for synovial hyperplasia, inflammatory cell infiltration, and bone and cartilage erosions (Brenner et al., “The Non-MHC Quantitative Trait Locus Cia10 Contains a Major Arthritis Gene and Regulates Disease Severity, Pannus Formation and Joint Damage,” Arthritis Rheum. 52 (1):322-332 (2005), which is hereby incorporated by reference in its entirety).

FLS from RA patients = experiment: Matrigel transwell invasion assay, RA FLS; assay type: cell-based, human
Source text: Human synovial tissues were obtained from RA patients undergoing elective orthopedic surgery. All patients met the American College of Rheumatology criteria for RA (Arnett et al, “The American Rheumatism Association 1987 Revised Criteria for the Classification of Rheumatoid Arthritis,” Arthritis Rheum. 31 (3):315-324 (1988), which is hereby incorporated by reference in its entirety). Informed consent was obtained from all participating subjects under an Institutional Review Board-approved protocol through the Feinstein Institute's Tissue Donation Program.
The in vitro invasiveness of FLS was assayed in a transwell system using Matrigel-coated inserts (BD Biosciences, Franklin Lakes, N.J.), as previously described (Tolboom et al., “Invasiveness of Fibroblast-Like Synoviocytes is an Individual Patient Characteristic Associated with the Rate of Joint Destruction in Patients with Rheumatoid Arthritis,” Arthritis Rheum. 52 (7):1999-2002 (2005); Laragione et al., “The Arthritis Severity Locus Cia5d is a Novel Genetic Regulator of the Invasive Properties of Synovial Fibroblasts,” Arthritis Rheum. 58 (8):2296-2306 (2008), which are hereby incorporated by reference in their entirety). […] The opposite side of the insert was stained with Crystal Violet (Sigma) and the total number of cells that invaded through Matrigel counted at 100× magnification. […]

C=C(C)[C@@H]1CCC(C)=C[C@H]1c1c(O)cc(C)cc1O [Compound O1821]
Distribution of Trpv2 in FLS ([1]; 10 μM): did not significantly change | Actin cytoskeleton rearrangements, lamellipodia, cell morphology ([1]; 10 μM, 30 minutes to 24 hours, PDGF or IL-1β): no significant effect | Actin cytoskeleton organization, number and distribution of lamellipodia ([1]; RA FLS, 1 μM, 30 minutes): did not affect | Levels of phosphorylated Erk1/2 (phosphorylated Erk1/2): did not affect | Arthritis severity scores ([2]; 10 mg/Kg BID IP from day 3 to day 9): reductions in arthritis severity scores | Arthritis severity index (ASI), mean±S.D. ([2]; 10 mg/Kg IP BID from day 3): 38.8±6.3 | Lower arthritis severity index (ASI) vs vehicle ([2]; 10 mg/Kg IP BID from day 3): 30% | Histologic parameters (angiogenesis, inflammatory infiltration, pannus formation, loss of proteoglycan) ([2]; ankles at D10, blinded scoring): reduced several histologic parameters | Angiogenesis ([2]; histology, vs control vehicle): marked reduction | Synovial pannus formation ([2]; histology, vs control vehicle): reduced | Synovial tissue inflammatory infiltration ([2]; histology, vs control vehicle): reduced | Reduction of RA FLS invasion (FLS from RA patients; 20 μM): 90% | Reduction of RA FLS invasion (FLS from RA patients; 50 μM): 99.4%
